The values that follow come from patent US20100255099A1, “CLAVULANATE FORMULATION FOR NEUROPROTECTION AND TREATMENT OF NEURODEGENERATIVE DISORDERS” (REXAHN PHARMACEUTICALS, INC., priority 2007, published 2010).

Series [1] is described as follows: Stability of clavulanate during moisture removal after wet granulation. It counts as physicochemical. On the procedure: Potassium clavulanate is an exceptionally difficult material to formulate, being extremely moisture and heat sensitive. Degradation readily occurs in the presence of water and aqueous media. Several methods were tested to find a suitable condition for removing moisture after wet granulation that keeps the active ingredient clavulanate intact. The material in sample C was prepared by wet granulation and spheronized. The moisture containing spheronized formulation was transferred to trays and subjected to different storage conditions for the removal of moisture.
Lyophilization retained 97% of the active ingredient after 21 hrs of the freeze drying process.

In series [2] the test system is TH-positive neurons in the substantia nigra pars compacta (SNpc). Kind of series: Tyrosine hydroxylase immunohistochemistry in MPTP model. In kind it is in vivo, C57BL/6 mice. To be noted: for TH-positive (TH-IR) neurons within the SNpc: clavulanate treated groups (ip and ga) compared to MPTP-saline group. The method, then: The neuroprotectant effects of clavulanate was tested in an MPTP (1-methyl-4-phenyl-1,2,3,6-tetrahydropyridine) induced Parkinson's disease animal model. Eight week old male C57BL/6 mice were separated into six groups of ten. Three times (one time per day) prior to MPTP treatment, ten animals were treated with clavulanate at a particular dose and route of administration (Groups 2-5) while the remaining animals (groups 1 and 6) were given saline vehicle. (See Table 13.) MPTP was given four times intraperitoneally at a dose of 20 mg/kg (total of 80 mg/kg). Two times (one time per day) post MPTP treatment, animals were given another administration of clavulanate or saline vehicle. Animals were tested for changes in behavior. Animals that survived MPTP treatment were sacrificed 7 days later and their brains examined for histological changes in the substantia nigra pars compacta (SNpc). Ten untreated control animals of the same weight and age as the experimental animals were sacrificed and their hippocampal morphology used as a standard for comparison.
(§1) On completion of the experiment, animals were anesthetized by IP injection of 10 mg/kg pentobarbital sodium, then perfused transcardially with 10 ml of PBS at pH 7.4, follow by 50 ml of 4% paraformaldehyde in PBS over a 5 min period. The brains were removed from the skull and post-fixed by immersion in the same fixative solution for 4 h, then transferred to 30% sucrose in PBS. After equilibration in the sucrose solution, coronal sections were cut using the cryocut at a thickness of 40 μm into storing solution and stored at 4° C. prior to staining.
Immunohistochemistry was carried out on free floating sections. All stains were carried out on a 1 in 5 series of sections. All sections were stained simultaneously using the same solutions of antibodies and ensuring that incubation times and washes were the same for each brain. […]
Neurons were counted using the optical fractionator, an unbiased method for cell counting that is not affected by either the volume of reference or the size of the counted elements (neurons). […]

A further series concerns Kainate animal model. Put plainly: Kainate animal model: seizure and survival. It counts as in vivo, Sprague Dawley rats. On the procedure: (§2) As a neuroprotectant, clavulanate was tested in the Kainate animal model. Thirty male Sprague Dawley rats weighing 300-350 grams were separated into three groups. One hour prior to kainate treatment, seven animals are treated with clavulanate at an IP dose of 10 μg/kg while the remaining animals were given saline vehicle. Kainate was given IP at a dose of 20 mg/kg to the seven clavulanate treated animals and 13 saline vehicle treated animals. […] Sixty minutes post kainate treatment the animals were given another IP injection (10 μg/kg) of clavulanate or saline vehicle. Animals that survived kainate treatment were sacrificed seven days later and their brains examined for histological changes in the hippocampus. Ten untreated control animals of the same weight and age as the experimental animals were sacrificed and their hippocampal morphology used as a standard for comparison.

Series [3] deals with cresyl violet positive neurons in the hippocampal CA3 region. Put plainly: Kainate animal model: cresyl violet staining of hippocampus. In kind it is in vivo, Sprague Dawley rats. The method, then:
as §2
as §1, with “with 100” for “with 10”, “by 250” for “by 50”, “staining. All stains are carried out on a 1 in 5 series of sections. […]” for “staining.”
To evaluate the effects of clavulanate against kainate induced neuronal damage, the measurement of neuronal number was performed using an image analyzing system equipped with a computer-based CCD camera (Multiscan, Fullerton, Calif.). The number of cresyl violet positive neurons was counted in a 1 mm diameter of hippocampus in five sections per animal. […] Data are expressed as the mean±SEM. The data were evaluated by a one-way ANOVA SPSS program and the means assessed using Duncan's multiple-range test. […]

Series [4] in a line: Moisture sorption of potassium clavulanate powder at different relative humidity. It counts as physicochemical. To be noted: for Moisture Content (%) (g H2O/g dry solid) / Moisture Content (%) (g H2O/g wet solid): 96 hr. The method, then:
Potassium clavulanate in its solid form is both hygroscopic and unstable in the presence of water vapor. A stability study of clavulanate was conducted with monitoring by chromatographic methods. The static or equilibrium approach was approached by storing samples in chambers at different relative humidity in an attempt to generate a sorption isotherm. The sorption isotherm represents the quantitative relationship between the equilibrium moisture content and relative humidity (RH) in the atmosphere.

Series [5] is described as follows: Pharmacokinetic study in beagle dogs. To be noted: dog, plasma; for Vd: iv, 4.2 mg. It counts as in vivo. The method, then:
The amount of clavulanate in the plasma of beagle dogs was measured by LC/MS/MS method. The chromatographic separation of the analytes was performed on a reverse-phase PLRP-S polymeric column. The retention time of potassium clavulanate and tazobactam (reference compound) were 8.51 and 8.54 min, respectively. The overall chromatographic run time was 25 min. The M/S analysis was performed on an Applied Biosystems' API 2000 triple-quardrupole mass spectrometer by multiple reaction monitoring in negative electrospray ionization mode. The mass spectral data were analyzed by Analyst 1.4.1 (Applied Biosystems). The pharmacokinetic analysis was conducted by using PK Solutions 2.0 (Summit Research Services).
Three male Beagle dogs were used throughout the study in a cross-over design with washout period between treatments. […] The animals were fasted overnight before the administration of the test substance and fed 4 hr post-dosing. During all the treatments, blood samples (1.5 ml) were withdrawn from the cephalic vein by venipuncture into heparinized tubes at 0, 5, 15, 30 min, 1, 1.5, 2, 2.5, 3, 4, 6, 9 and 12 hr after dosing. Plasma was obtained via centrifugation at 3,000 rpm for 10 min and analyzed by an LC-MS/MS system.
Three male beagle dogs were used throughout the study in a cross-over design with washout period between treatments. The dogs were given the test substances as aqueous solution via intravenous routes with no shorter than 24 hr washout period between dosing. The animals were fasted overnight before the administration of the test substance and fed 4 hr post-dosing. During all the treatments, blood samples (1.5 ml) were withdrawn from the cephalic vein by venipuncture into heparinized tubes at 0, 5, 15, 30 min, 1, 1.5, 2, 2.5, 3, 4, 6, 9 and 12 hr after dosing. Plasma was obtained via centrifugation at 3,000 rpm for 10 min and analyzed by an LC-MS/MS system.
Four male beagle dogs were used throughout the study in a cross-over design with washout period between treatments. The dogs were given the test substances as ER tablet of Example 3C via oral routes with no shorter than 24 hr washout period between dosing. The animals were fasted overnight before the administration of the test substance and fed 4 hr post-dosing. During all the treatments, blood samples (1.5 ml) were withdrawn from the cephalic vein by venipuncture into heparinized tubes at 1, 2, 3, 4, 5, 6, 7, 8, 9, 10, 11 and 12 hr after dosing. Plasma was obtained via centrifugation at 3,000 rpm for 10 min and analyzed by an LC-MS/MS system.

Setting [6] is: compared to controls given saline only.
Where [7] appears, read: IV aqueous solution, dose 4.2 mg, male beagle dogs.

Molecules are shown by their SMILES. “Also recorded” adds a separate entry of the source. Where two headings read alike, the source gives them in different places. A value given as a limit tells only on which side of the number the result lay.

As for `O=C(O)[C@H]1/C(=C/CO)O[C@@H]2CC(=O)N21` [clavulanate], the “Clavulanate (%)” value in series [1] (Freeze dry: sub-zero, 21 hr) was 97%. Also, the degradation in series [1] (drying in a fluid bed system, 1.5 hr) amounted to 13%. The “TH-positive (TH-IR) neurons within the SNpc” value in series [2] is “significantly protected; also recorded: preservation”. In series [2] (listed as Clavulanate), the “TH-positive (TH-IR) neurons within the SNpc” value was “well preserved”. Moreover, the “protection of TH-positive SNpc neurons, gavage versus ip” value in series [2] (following gavage treatment) is “greater protection”. In addition, in the series with Kainate animal model (setting [6]), the onset to seizure entry was “longer onset to seizure” and the seizure activity entry is reported as “mild seizure activity”. Also, the “Survival rate (%)” value in the series on Kainate animal model (kainate 20 mg/kg IP, clavulanate 10 μg/kg IP 1 hr before and 60 min after kainate) is listed as 100%. The Seizure rate with Kainate animal model (seizure rating scale (Sperk et al., 1983), 60-120 min after kainate treatment) is reported as 0-1. In addition, the fatality result in the series with Kainate animal model (within 24 hrs of kainate treatment) is “no fatality”. The “pyramidal neurons positive to cresyl violet” value in series [3] (CA3 stratum pyramidale, 7 days after kainate, compared to the normal group) is listed as 88.7%. Besides, in series [3] (compared to animals treated with kainate-saline), the “morphology of neurons in CA3” value is on record as “normal morphology”. Also, the “neuroprotective effect on kainate induced hippocampal cell death (CA3 region)” value in series [3] (kainate treated rats) is recorded as “strong neuroprotective effect; also recorded: significant neuroprotective effect”.
Regarding `O=C(O)[C@H]1/C(=C/CO)O[C@@H]2CC(=O)N21` [potassium clavulanate], the “humidity above which deliquescence would eventually occur” value in series [4] is reported as “above 40 % relative humidity”. Besides, the “Moisture Content (%) (g H2O/g dry solid)” value in series [4] (33% RH) is listed as 0.713%; in series [4] (35% RH), 0.737%; in series [4] (37% RH), 0.848%; in series [4] (39% RH) it was 1.280%; in series [4] (41% RH) it was 1.566%; in series [4] (43% RH), 4.140%. Besides, the entries for the “Moisture Content (%) (g H2O/g dry solid)” value in series [4] (45% RH) and in series [4] (47% RH) were 5.018% and 14.708%, respectively. Besides, the “Moisture Content (%) (g H2O/g wet solid)” value in series [4] (33% RH) is 0.708%; in series [4] (35% RH), 0.733%; in series [4] (37% RH) it was 0.842%; in series [4] (39% RH), 1.264%; in series [4] (41% RH), 1.542%; in series [4] (43% RH) it was 3.976%. Also, the “Moisture Content (%) (g H2O/g wet solid)” value came to 4.778% in series [4] (45% RH) and 12.823% in series [4] (47% RH). Besides, in series [4] (dry potassium clavulanate exposed to about 50% relative humidity), the “rate of moisture absorption” value is on record as “approximately 1.44 % per hour”. Moreover, in series [4] (exposed to about 35% or less of relative humidity for 96 hr), the “moisture content on a dry weight basis” value is given as below 1%. Further, the figures for the degradation entry in series [1] (storage at 30° C. for 69 hr (storage 1)) and in series [1] (storage at 45° C. for 75 hr (storage 2)) were “up to 45%” and at most 60%, respectively. Besides, the AUC(0-t) in series [5] (setting [7]) is 684 ng·h/mL. In series [5] (setting [7]), this compound had an MRT inf of 39 min. This compound had a clearance in series [5] (setting [7]) of 96.7 mL/min. The bioavailability in series [5] (IV aqueous solution, dose 4.2 mg, male beagle dogs, read-out: F (bioavailability)) is 100%; in series [5] (male, beagle, po, given orally, fasted animals, read-out: average bioavailability), 30 to 41%. For the same compound, the half-life in series [5] (IV aqueous solution, dose 4.2 mg, male beagle dogs, read-out: t1/2 (converted)) is 31.2 min; in series [5] (male, beagle dogs, read-out: apparent terminal half-life (converted)) it was 30 min. Also, the Vd in series [5] (male, beagle, IV aqueous solution, dose 4.2 mg, male beagle dogs, read-out: Vd) worked out at 4.4 L; in series [5] (male, beagle, IV aqueous solution, dose 4.2 mg, male beagle dogs, read-out: Vss), 3.8 L.
